Test [1] deals with 1205Lu xenografts. The test can be described thus: 1205Lu reporter xenograft model, tumor volume / response. In kind it is in vivo, immunodeficient nude mice. From the text:
(§1) FIG. 7 A depicts the E2F reporter system for measuring the efficacy of CDK4/6 and MEK inhibitors in vivo. Firefly luciferase is expressed under the control of E2F response elements. […] CR=complete response. FIG. 7D depicts analysis of E2F reporter activity normalized to tdTomato fluorescent protein activity in 1205Lu xenografts. […] CR=complete response. FIG. 7G depicts representative images of 1205Lu xenografts taken from mice fed vehicle, MEK inhibitor, CDK4/6 inhibitor and combo-laced chow analyzed for Ki67. FIG. 7H depicts quantitation of Ki67 positive cells (% of total cells) taken from mice fed vehicle (n=2), MEK inhibitor (n=4), CDK4/6 inhibitor (n=4) and combo laced chow (n=4).
(§2) Indeed, in a performed xenograft mouse model, 1205Lu reporter cells were intradermally injected into immunodeficient nude mice.
(§3) Mice were retreated with combination regimen at day 67. FIG. 9B depicts modulation of E2F activity in combination treated mice following drug removal and retreatment. […] FIG. 9C depicts RPPA analysis on resistant tumors.

The test system of test [2] is E2F. The experiment in a line: E2F reporter activity in 1205Lu xenografts (luciferase normalized to tdTomato). The test is classed as in vivo, immunodeficient nude mice. The following applies: drug-laced chow.
Text: as §1, §2, §3

In test [3] the test system is E2F. The experiment in a line: E2F reporter assay in vitro (firefly luciferase normalized to actin). In kind it is cell-based, human. The note with it: 1205Lu reporter cells; palbociclib (0.5 μM), 48 hours. From the text:
CR=complete response. […] CR=complete response.
Tumor cells were also transduced with tdTomato fluorescent protein to selectively monitor tumor growth. […] In FIG. 8 1205Lu reporter cells were transfected with silencing RNA to control sequence, CDK4, CDK6 or both CDK4 and CDK6. […] Firefly luciferase activity was normalized to actin levels in each sample.

Consider `O=C(NOC[C@H](O)CO)c1ccc(F)c(F)c1Nc1ccc(I)cc1F` [PD0325901], for which the complete regressions result in test [1] (MEK inhibitor chow (mouse #6)) is “one complete regression”. In addition, the “tumor regrowth on treatment” value in test [1] (by treatment day 44) is recorded as “dramatic tumor regrowth”. Also, in test [1] (drug-laced chow), the “tumor volume, initial response” value is recorded as “initially maintained tumor volumes at a static level”. Further, the “E2F reporter activity in tumors on treatment” value in test [2] is listed as “strong E2F reactivation”.
Regarding `CC(=O)c1c(C)c2cnc(Nc3ccc(N4CCNCC4)cn3)nc2n(C2CCCC2)c1=O` [palbociclib], the “reduction in firefly luciferase activity normalized to actin levels” value in test [3] stood at 60%.

Values taken from US11571483B2, “E2F reporter melanoma cells” (THOMAS JEFFERSON UNIVERSITY, priority 2015, dated 2023).
